Laboratory results from the supplement of paper PMC10883282.

Legend:
Assay in all cases: relative viability vs DMSO control (72 h) (fraction); higher = more viable cells
[1] = system: SK-ES-1
Procedure, shortened: (§1)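 Sarcoma cell lines in 384-well plates, seeded to reach 80–90% confluence, were given compound after 24 h and kept 72 h at 37 °C, 5% CO2, with 0.1% DMSO vehicle and a 5 µM positive control. Relative viability came from ATPLite as percent growth, averaged over up to triplicate wells. On the rescaled values, 1 equals full and 0 equals none.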

[2] = system: SW872
Procedure, shortened: as §1

[3] = system: SW1353
Procedure, shortened: as §1

[4] = system: SK-LMS-1
Procedure, shortened: as §1

[5] = system: A204
Procedure, shortened: as §1

[6] = system: SW982
Procedure, shortened: as §1

[7] = system: HS729
Procedure, shortened: as §1

[8] = system: RD
Procedure, shortened: as §1

[9] = system: KHOS-240S
Procedure, shortened: as §1

[10] = system: VA-ES-BJ
Procedure, shortened: as §1

[11] = system: MES-SA
Procedure, shortened: as §1

[12] = system: G401
Procedure, shortened: as §1

N#CCNC(=O)c1ccc(-c2ccnc(Nc3ccc(N4CCOCC4)cc3)n2)cc1 [Momelotinib]
Details	relative viability
[1], 0.00017 µM	1.06
[1], 0.00051 µM	1.05
[1], 0.00152 µM	1.01
[1], 0.00457 µM	1.01
[1], 0.01372 µM	0.978
[1], 0.04115 µM	0.953
[1], 0.1235 µM	0.914
[1], 0.3704 µM	0.781
[1], 1.111 µM	0.575
[1], 3.333 µM	0.516
[1], 10 µM	0.332
[2], 0.00017 µM	1.07
[2], 0.00051 µM	1.06
[2], 0.00152 µM	1.07
[2], 0.00457 µM	1.025
[2], 0.01372 µM	1.03
[2], 0.04115 µM	1.06
[2], 0.1235 µM	0.973
[2], 0.3704 µM	0.972
[2], 1.111 µM	0.765
[2], 3.333 µM	0.733
[2], 10 µM	0.654
[3], 0.00017 µM	1.1
[3], 0.00051 µM	1.05
[3], 0.00152 µM	1.07
[3], 0.00457 µM	1.07
[3], 0.01372 µM	1.06
[3], 0.04115 µM	1.04
[3], 0.1235 µM	1.03
[3], 0.3704 µM	0.963
[3], 1.111 µM	0.7816
[3], 3.333 µM	0.739
[3], 10 µM	0.511
[4], 0.00017 µM	1.13
[4], 0.00051 µM	1.13
[4], 0.00152 µM	1.11
[4], 0.00457 µM	1.1
[4], 0.01372 µM	1.13
[4], 0.04115 µM	1.06
[4], 0.1235 µM	1.08
[4], 0.3704 µM	1.05
[4], 1.111 µM	0.946
[4], 3.333 µM	0.924
[4], 10 µM	0.886
[5], 0.00017 µM	1.03
[5], 0.00051 µM	1.07
[5], 0.00152 µM	1.05
[5], 0.00457 µM	1.05
[5], 0.01372 µM	1.04
[5], 0.04115 µM	1.06
[5], 0.1235 µM	0.993
[5], 0.3704 µM	0.774
[5], 1.111 µM	0.646
[5], 3.333 µM	0.498
[5], 10 µM	0.284
[6], 0.00017 µM	0.986
[6], 0.00051 µM	1.02
[6], 0.00152 µM	1.025
[6], 0.00457 µM	1.02
[6], 0.01372 µM	0.983
[6], 0.04115 µM	1
[6], 0.1235 µM	0.987
[6], 0.3704 µM	0.841
[6], 1.111 µM	0.604
[6], 3.333 µM	0.548
[6], 10 µM	0.436
[7], 0.00017 µM	1.07
[7], 0.00051 µM	1.04
[7], 0.00152 µM	1.05
[7], 0.00457 µM	1.06
[7], 0.01372 µM	1.01
[7], 0.04115 µM	1.01
[7], 0.1235 µM	0.995
[7], 0.3704 µM	0.939
[7], 1.111 µM	0.859
[7], 3.333 µM	0.777
[7], 10 µM	0.741
[8], 0.00017 µM	0.971
[8], 0.00051 µM	0.998
[8], 0.00152 µM	0.987
[8], 0.00457 µM	1.03
[8], 0.01372 µM	0.995
[8], 0.04115 µM	1.02
[8], 0.1235 µM	1.041
[8], 0.3704 µM	1.04
[8], 1.111 µM	1.02
[8], 3.333 µM	0.994
[8], 10 µM	0.905
[9], 0.00017 µM	1.05
[9], 0.00051 µM	1.03
[9], 0.00152 µM	1.08
[9], 0.00457 µM	1.05
[9], 0.01372 µM	1.08
[9], 0.04115 µM	1.03
[9], 0.1235 µM	0.992
[9], 0.3704 µM	0.92
[9], 1.111 µM	0.789
[9], 3.333 µM	0.768
[9], 10 µM	0.725
[10], 0.00017 µM	1.07
[10], 0.00051 µM	1.07
[10], 0.00152 µM	1.08
[10], 0.00457 µM	1.066
[10], 0.01372 µM	1.09
[10], 0.04115 µM	1.07
[10], 0.1235 µM	1.04
[10], 0.3704 µM	1.03
[10], 1.111 µM	0.97
[10], 3.333 µM	0.987
[10], 10 µM	0.891
[11], 0.00017 µM	0.942
[11], 0.00051 µM	0.971
[11], 0.00152 µM	0.9306
[11], 0.00457 µM	0.952
[11], 0.01372 µM	0.934
[11], 0.04115 µM	0.881
[11], 0.1235 µM	0.84
[11], 0.3704 µM	0.786
[11], 1.111 µM	0.685
[11], 3.333 µM	0.616
[11], 10 µM	0.378
[12], 0.00017 µM	1.01
[12], 0.00051 µM	1.011
[12], 0.00152 µM	1.05
[12], 0.00457 µM	1.06
[12], 0.01372 µM	1.01
[12], 0.04115 µM	0.964
[12], 0.1235 µM	0.975
[12], 0.3704 µM	0.898
[12], 1.111 µM	0.779
[12], 3.333 µM	0.683
[12], 10 µM	0.54

Cc1ccc(Nc2nccc(N(C)c3ccc4c(C)n(C)nc4c3)n2)cc1S(N)(=O)=O [Pazopanib]
Details	relative viability
[1], 0.00017 µM	1.02
[1], 0.00051 µM	1.001
[1], 0.00152 µM	1.02
[1], 0.00457 µM	1.03
[1], 0.01372 µM	1.02
[1], 0.04115 µM	1.02
[1], 0.1235 µM	1.02
[1], 0.3704 µM	1
[1], 1.111 µM	1.01
[1], 3.333 µM	0.916
[1], 10 µM	0.524
[2], 0.00017 µM	1
[2], 0.00051 µM	0.986
[2], 0.00152 µM	0.988
[2], 0.00457 µM	0.9911
[2], 0.01372 µM	0.989
[2], 0.04115 µM	0.934
[2], 0.1235 µM	0.9475
[2], 0.3704 µM	0.968
[2], 1.111 µM	0.984
[2], 3.333 µM	0.934
[2], 10 µM	0.694
[3], 0.00017 µM	0.962
[3], 0.00051 µM	0.952
[3], 0.00152 µM	0.94
[3], 0.00457 µM	0.977
[3], 0.01372 µM	0.96
[3], 0.04115 µM	0.947
[3], 0.1235 µM	0.946
[3], 0.3704 µM	0.939
[3], 1.111 µM	0.931
[3], 3.333 µM	0.89
[3], 10 µM	0.8
[4], 0.00017 µM	0.993
[4], 0.00051 µM	1
[4], 0.00152 µM	1.02
[4], 0.00457 µM	1.06
[4], 0.01372 µM	1.01
[4], 0.04115 µM	0.998
[4], 0.1235 µM	0.973
[4], 0.3704 µM	0.9626
[4], 1.111 µM	0.981
[4], 3.333 µM	0.935
[4], 10 µM	0.776
[5], 0.00017 µM	1.03
[5], 0.00051 µM	1.06
[5], 0.00152 µM	1.06
[5], 0.00457 µM	1.03
[5], 0.01372 µM	0.977
[5], 0.04115 µM	0.928
[5], 0.1235 µM	0.611
[5], 0.3704 µM	0.348
[5], 1.111 µM	0.342
[5], 3.333 µM	0.294
[5], 10 µM	0.243
[6], 0.00017 µM	1.04
[6], 0.00051 µM	1.01
[6], 0.00152 µM	1.03
[6], 0.00457 µM	1.03
[6], 0.01372 µM	1.05
[6], 0.04115 µM	1.05
[6], 0.1235 µM	1.03
[6], 0.3704 µM	1.04
[6], 1.111 µM	1.06
[6], 3.333 µM	1.016
[6], 10 µM	0.729
[7], 0.00017 µM	0.9
[7], 0.00051 µM	0.922
[7], 0.00152 µM	0.876
[7], 0.00457 µM	0.879
[7], 0.01372 µM	0.917
[7], 0.04115 µM	0.8727
[7], 0.1235 µM	0.843
[7], 0.3704 µM	0.793
[7], 1.111 µM	0.724
[7], 3.333 µM	0.7
[7], 10 µM	0.554
[8], 0.00017 µM	1.11
[8], 0.00051 µM	1.12
[8], 0.00152 µM	1.12
[8], 0.00457 µM	1.11
[8], 0.01372 µM	1.11
[8], 0.04115 µM	1.12
[8], 0.1235 µM	1.12
[8], 0.3704 µM	1.13
[8], 1.111 µM	1.12
[8], 3.333 µM	1.16
[8], 10 µM	1.1
[9], 0.00017 µM	1.03
[9], 0.00051 µM	1.04
[9], 0.00152 µM	1.05
[9], 0.00457 µM	1.04
[9], 0.01372 µM	1.03
[9], 0.04115 µM	1.02
[9], 0.1235 µM	0.975
[9], 0.3704 µM	0.974
[9], 1.111 µM	0.932
[9], 3.333 µM	0.88
[9], 10 µM	0.621
[10], 0.00017 µM	1.04
[10], 0.00051 µM	1.05
[10], 0.00152 µM	1.07
[10], 0.00457 µM	1.05
[10], 0.01372 µM	1.06
[10], 0.04115 µM	1.07
[10], 0.1235 µM	1.08
[10], 0.3704 µM	1.12
[10], 1.111 µM	1.14
[10], 3.333 µM	1.12
[10], 10 µM	1.06
[11], 0.00017 µM	0.9224
[11], 0.00051 µM	0.925
[11], 0.00152 µM	0.931
[11], 0.00457 µM	0.934
[11], 0.01372 µM	0.933
[11], 0.04115 µM	0.928
[11], 0.1235 µM	0.922
[11], 0.3704 µM	0.95
[11], 1.111 µM	0.931
[11], 3.333 µM	0.824
[11], 10 µM	0.517
[12], 0.00017 µM	0.952
[12], 0.00051 µM	1.01
[12], 0.00152 µM	0.994
[12], 0.00457 µM	0.983
[12], 0.01372 µM	1
[12], 0.04115 µM	0.949
[12], 0.1235 µM	0.909
[12], 0.3704 µM	0.864
[12], 1.111 µM	0.857
[12], 3.333 µM	0.696
[12], 10 µM	0.449
